Broadly, the EC50 is the concentration at which the effect is half-maximal.

Each structure is given as a SMILES string. Active and inactive are the calls of the source. The calls are words filed in the database; no cut-off is given here.

The values below come from ChEMBL document CHEMBL4340520, “Hederagenin amide derivatives as potential antiproliferative agents” (Eur J Med Chem, 2019).

Assay [1] has as its system HT-29. The experiment in a line: Potency index, ratio of betulinic acid EC50 to test compound EC50 for cytotoxicity against human HT-29 cells. Type of assay: functional.
The test system of a further assay is SW-1736. Nature of the assay: Cytotoxicity against human SW1736 cells assessed as reduction in cell viability after 96 hrs by SRB assay. Type of assay: functional, cell-based. Particulars: SW-1736, 96 h. For orientation: The SRB assay estimates cell density from bound dye.
Assay [2] deals with A2780. Nature of the assay: Cytotoxicity against human A2780 cells assessed as cell membrane permeability at 6 uM after 24 hrs by acridine orange/propidium iodide staining based fluorescence microscopic method. Type of assay: functional.
Assay [3] concerns HT-29. The experiment in a line: Potency index, ratio of hederagenin EC50 to test compound EC50 for cytotoxicity against human HT-29 cells. Type of assay: functional.
The subject of assay [4] is HT-29. Nature of the assay: Cytotoxicity against human HT-29 cells assessed as cell membrane permeability at 2.5 to 5 uM after 24 hrs by acridine orange/propidium iodide staining based fluorescence microscopic method. Type of assay: functional.
The test system of the next assay is NIH3T3. The experiment in a line: Cytotoxicity against mouse NIH/3T3 cells assessed as reduction in cell viability after 96 hrs by SRB assay. As to conditions: NIH3T3, 96 h. Type of assay: cell-based.
The subject of a further assay is FaDu. Nature of the assay: Cytotoxicity against human FADU cells assessed as reduction in cell viability after 96 hrs by SRB assay. Type of assay: functional, cell-based.
In assay [5] the test system is HT-29. The experiment in a line: Cytotoxicity against human HT-29 cells assessed as reduction in cell viability after 96 hrs by SRB assay. Particulars: HT-29, 96 h. Type of assay: functional, cell-based.
Assay [6] concerns A2780. Nature of the assay: Cytotoxicity against human A2780 cells assessed as reduction in cell viability after 96 hrs by SRB assay. Type of assay: functional, cell-based. Particulars: A2780, 96 h.
Assay [7] concerns A2780. The experiment in a line: Induction of apoptosis in human A2780 cells assessed as increase in secondary necrotic cells at 6 uM after 24 hrs by Annexin V-FITC/propidium iodide staining-based flow cytometric analysis. Type of assay: functional, cell-based.

Turning to `CC1(C)CC[C@]2(C(=O)N3CCCC3)CC[C@]3(C)C(=CC[C@@H]4[C@@]5(C)CC[C@H](O)[C@@](C)(CO)[C@@H]5CC[C@]43C)[C@@H]2C1`, the “Ratio EC50” value with HT-29 [1] turned out to be 15; in the assay on HT-29 [3] it was 30. Also, the EC50 in the assay with SW-1736 was found to be 3600 nM; with NIH3T3, 2200 nM; in the assay on FaDu, 2800 nM; in the assay on HT-29 [5], 1200 nM; with A2780 [6], 3000 nM. Moreover, the result with A2780 [2], with HT-29 [4] and in the assay with A2780 [7] was Active.
